The test system of assay [1] is Src family kinases when they carry the respective TQ mutations. Particulars: cited from earlier work.
Assay [2] concerns Src-TQ/YF expressing cell line ZM170.21. The assay is described as follows: CTB and ATP cell viability/metabolic activity assays, suppression of tet-induced reduction. Particulars: ZM170.21 (Src-TQ/YF), 5µM PP2 + 10µM PP1-Chr., 40µM D5, 1µM 17-AAG, 1µM radicicol. The format is cell-based, human. From the text: To proof the concept of the assay platform according to the invention in a quantitative manner with a highly parallel readout, the following cell viability / metabolic activity assays from Promega according to the manufacturer's protocols: "CellTiter 96 AQueous One Solution Cell Proliferation Assay (MTS)", CellTiter-BlueTM Cell Viability Assay (CTB), and the ATP-status assay "CellTiter-Glo Luminescent Cell Viability Assay" (ATP) were used to obtain quantitative values reflecting (aspects of) the phenotype changes. The cells were seeded into white-walled/ clear bottom 96-well plates ["MICROTEST" by Falcon, cat.no. 353947] for MTS and ATP assays and in black-walled/ clear bottom 96-well plates ["MICROTEST" by Falcon, cat.no. 353948] for the CTB assay at the appropriate densities. Tet and/or compound addition (where applicable) was started the next day. Measurements were taken 1,2 and 3 days later using the Wallac Victor^2TM multilabel plate reader (Perkin Elmer). Absorbance was measured at 490nm (MTS). Luminescence mode was used for the ATP assay. For CTB fluorescence excitation wavelength was 550nm (filter: 550(20)nm), emission wavelength was 590 nm (filter: 590(20)nm). Indicated are the means of sixplicate determinations (from 6 independent wells) in the absence of tet (mean(-tet)) and in the presence of tet (mean(+tet)), followed by the respective corresponding standard deviations SD(-tet) and SD(+tet). The cell viability/ metabolic activity upon tet-induction in relation to the cell viability/ metabolic activity without tet ("+/tet(means") is calculated from the quotient of the means of the measured cell viability/ metabolic activity signals from i) cells incubated without tet and ii) cells incubated with tet. […] Furthermore indicated are the corresponding Z' values. In the present context: Z'=1-(3(SD(+tet)+SD(-tet))/ |mean(+tet)-mean(-tet)|. […] SD=0) (Zhang et al., 1999). Z'≥0 is required for an assay useful for a screening approach; a Z'≥0.5 is considered excellent for an assay with regard to high throughput screening. […] Three more parameters reflecting the effects of compounds on cell viability/metabolic activity in these assays are indicated in Tab.3 and Tab.4: Toxicity reflects the nonspecific (i.e. irrespective of tet-induced Src/ Src mutant expression) effects of a compound on the viability/ metabolic activity of the cells. It is calculated as toxicity=1-mean(-tet, compound)/mean(-tet,(DMSO)). […] The suppression value quantifies the potency of a compound with respect to suppression of the tet-induced change in cell viability / metabolic activity. Usually, tet-induction reduces cell viability / metabolic activity due to Src activity and addition of a Src inhibitory compound mitigates this reduction. A suppression of 100% means that the compound totally suppresses the tet-induced decrease in cell viability / metabolic activity (as in the absence of tet). The following formula is employed: Suppres-sion=([…]). Finally, the corresponding Z' value is calculated as follows: Z'(suppression)=1- 3([…]). The factor Qtox corrects the means and SD determined in the absence of a compound for the (nonspecific) toxicity effect of the respective compound, which would otherwise overlay and obscure the specific suppression, if toxicity is not neglectable. […] On each day 4 measurements are taken (1, 2, 3 and 4 h after the addition of the CTB assay reagents). […]

These results are taken from patent EP1541694A1, “Methods of identifying, selecting and/or characterizing compounds which modulate the activity of a Src family kinase” (Sirenade Pharmaceuticals AG, priority 2003, dated 2005).

In the case of `CC(C)(C)n1nc(-c2ccc(Cl)cc2)c2c(N)ncnc21` [PP2], the “inhibition of Src family kinases carrying the TQ mutations” value in assay [1] is reported as “do not inhibit”. Also, the “suppression of the +/-tet(means)-values” in assay [2] was “did not significantly suppress”.
